# The source made the active and inactive calls.
# Tests used:
# INS1 = assay: INS-1E survival protection against cytokine death – cell-based, luminescence, retest, dose response (AID 449756); type: functional; conditions: Rattus norvegicus;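 also: cell death triggered by IL-1 beta plus TNF-alpha plus IFN-gamma mixture; protective hits raise ATP signal compared with cytokine alone wells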
# [1] = Luminescence Cell-Based Dose Retest to Confirm Inhibitors of Cancer Stem Cells. [Related pubchem assays (depositor defined):AID2717, AID2721]; type: functional; conditions: Homo sapiens
# [2] = P. falciparum Dd2 growth inhibitors, dose response, SYBR Green, cherry-picked samples (AID 1159567); type: functional, cell-based
# [3] = biological target: Luciferin 4-monooxygenase (Photinus pyralis, UniProt P08659); assay: inhibition of purified Photinus pyralis luciferase – biochemical, luminescence, dose response (AID 1891)
# Luciferin 4-monooxygenase, sequence (P08659 whole entry): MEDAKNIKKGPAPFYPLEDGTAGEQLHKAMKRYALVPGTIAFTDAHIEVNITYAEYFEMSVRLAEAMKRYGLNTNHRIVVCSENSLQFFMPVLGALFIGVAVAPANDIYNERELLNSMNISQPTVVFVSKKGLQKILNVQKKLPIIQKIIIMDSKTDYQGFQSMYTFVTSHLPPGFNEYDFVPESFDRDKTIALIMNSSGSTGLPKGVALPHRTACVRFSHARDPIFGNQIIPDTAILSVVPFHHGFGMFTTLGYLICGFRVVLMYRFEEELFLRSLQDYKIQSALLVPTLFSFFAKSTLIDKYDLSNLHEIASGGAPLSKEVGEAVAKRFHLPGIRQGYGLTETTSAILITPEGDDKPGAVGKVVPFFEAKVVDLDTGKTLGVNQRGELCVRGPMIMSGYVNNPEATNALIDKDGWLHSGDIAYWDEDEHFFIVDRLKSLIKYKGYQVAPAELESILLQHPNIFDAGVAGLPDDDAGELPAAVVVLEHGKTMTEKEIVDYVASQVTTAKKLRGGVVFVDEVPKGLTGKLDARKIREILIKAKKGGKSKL
# [4] = Luminescence Cell-Based Dose Confirmation HTS to Identify Inhibitors of Platelet Dense Granule Release. [Related pubchem assays: 1663 (Primary HTS), 1678 (Summary of Project)]; type: functional
# Protein RecA = biological target: T1, Protein RecA (Mycobacterium tuberculosis, UniProt P9WHJ3); assay: Fluorescence Cell-Free Homogeneous Dose Retest to Identify Inhibitors of RecA-Intein Splicing Activity. [Related pubchem assays (depositor defined):AID2097, AID2223, AID489010, AID492950]; type: functional
# T1 sequence (P9WHJ3 whole entry): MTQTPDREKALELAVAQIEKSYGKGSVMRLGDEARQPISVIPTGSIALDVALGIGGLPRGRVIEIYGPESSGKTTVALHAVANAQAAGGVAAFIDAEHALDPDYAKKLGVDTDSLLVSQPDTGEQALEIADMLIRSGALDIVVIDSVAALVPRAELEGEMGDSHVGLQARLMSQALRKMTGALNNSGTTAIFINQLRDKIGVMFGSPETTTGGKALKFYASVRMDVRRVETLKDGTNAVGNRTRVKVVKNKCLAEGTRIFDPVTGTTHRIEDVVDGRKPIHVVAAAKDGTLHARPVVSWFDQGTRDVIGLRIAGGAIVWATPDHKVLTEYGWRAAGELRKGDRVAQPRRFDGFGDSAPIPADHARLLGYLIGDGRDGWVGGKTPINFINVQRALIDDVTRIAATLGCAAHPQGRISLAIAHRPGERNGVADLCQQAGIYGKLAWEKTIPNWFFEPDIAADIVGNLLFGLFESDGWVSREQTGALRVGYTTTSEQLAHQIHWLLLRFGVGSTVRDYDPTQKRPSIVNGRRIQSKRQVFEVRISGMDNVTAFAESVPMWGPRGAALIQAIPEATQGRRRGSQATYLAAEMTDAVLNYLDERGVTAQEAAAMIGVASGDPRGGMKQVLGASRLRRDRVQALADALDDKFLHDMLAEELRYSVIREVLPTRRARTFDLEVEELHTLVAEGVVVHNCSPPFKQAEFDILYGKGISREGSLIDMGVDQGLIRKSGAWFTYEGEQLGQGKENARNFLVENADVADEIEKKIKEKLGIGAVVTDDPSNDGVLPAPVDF
# [5] = biological target: T2, Replicative DNA helicase DnaB (Mycobacterium tuberculosis, UniProt P9WMR3); assay: DnaB intein splicing inhibitors, dose response, biochemical, cell-free fluorescence (AID 449749); type: functional
# T2 sequence (P9WMR3 whole entry): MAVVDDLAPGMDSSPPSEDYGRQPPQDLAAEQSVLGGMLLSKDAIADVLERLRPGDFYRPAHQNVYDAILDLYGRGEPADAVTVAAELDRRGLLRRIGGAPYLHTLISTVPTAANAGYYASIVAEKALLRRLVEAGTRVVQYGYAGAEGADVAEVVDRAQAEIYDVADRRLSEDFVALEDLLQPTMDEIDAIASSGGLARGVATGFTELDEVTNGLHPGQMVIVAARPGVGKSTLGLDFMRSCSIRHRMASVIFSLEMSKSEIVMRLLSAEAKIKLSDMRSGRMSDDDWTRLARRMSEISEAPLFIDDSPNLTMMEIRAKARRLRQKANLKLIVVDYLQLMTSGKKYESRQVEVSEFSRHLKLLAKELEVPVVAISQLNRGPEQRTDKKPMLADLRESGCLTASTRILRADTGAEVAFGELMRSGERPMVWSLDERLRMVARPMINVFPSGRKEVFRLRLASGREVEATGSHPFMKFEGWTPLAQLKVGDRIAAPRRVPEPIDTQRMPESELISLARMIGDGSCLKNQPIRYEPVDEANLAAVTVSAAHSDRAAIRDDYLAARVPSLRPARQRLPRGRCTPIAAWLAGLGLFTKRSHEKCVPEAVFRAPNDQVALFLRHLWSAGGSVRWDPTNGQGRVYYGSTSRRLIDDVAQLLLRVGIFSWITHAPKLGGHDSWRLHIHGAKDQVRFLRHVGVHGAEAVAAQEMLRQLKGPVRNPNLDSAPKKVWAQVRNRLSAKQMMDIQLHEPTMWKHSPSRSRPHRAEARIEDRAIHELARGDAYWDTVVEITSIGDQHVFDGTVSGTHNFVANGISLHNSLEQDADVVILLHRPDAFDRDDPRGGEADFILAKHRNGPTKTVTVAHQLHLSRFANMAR
# [6] = biological target: T3, High affinity choline transporter 1 (Homo sapiens, UniProt Q9GZV3); assay: human choline transporter blockers, potency – cell-based, 5-point CRC, membrane potential dye, dose response (AID 504840); type: functional
# T3 sequence (Q9GZV3 whole entry): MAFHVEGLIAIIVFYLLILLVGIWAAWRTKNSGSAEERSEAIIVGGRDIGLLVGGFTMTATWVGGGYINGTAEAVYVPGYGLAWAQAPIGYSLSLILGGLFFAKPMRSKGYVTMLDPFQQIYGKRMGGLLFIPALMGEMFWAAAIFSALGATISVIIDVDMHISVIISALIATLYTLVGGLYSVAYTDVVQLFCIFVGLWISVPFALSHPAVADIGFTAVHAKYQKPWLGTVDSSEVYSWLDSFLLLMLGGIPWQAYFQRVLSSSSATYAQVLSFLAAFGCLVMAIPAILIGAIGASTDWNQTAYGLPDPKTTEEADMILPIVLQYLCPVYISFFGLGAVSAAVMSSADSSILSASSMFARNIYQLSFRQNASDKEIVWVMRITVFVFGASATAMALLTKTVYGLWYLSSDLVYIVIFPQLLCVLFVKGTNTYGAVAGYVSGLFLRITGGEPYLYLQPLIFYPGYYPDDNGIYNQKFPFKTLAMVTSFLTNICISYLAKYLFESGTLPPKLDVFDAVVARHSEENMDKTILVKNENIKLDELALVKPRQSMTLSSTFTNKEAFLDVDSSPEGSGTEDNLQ
# Protein skinhead-1 = biological target: T4, Protein skinhead-1 (Caenorhabditis elegans, UniProt P34707); type: functional
# T4 sequence (P34707 whole entry): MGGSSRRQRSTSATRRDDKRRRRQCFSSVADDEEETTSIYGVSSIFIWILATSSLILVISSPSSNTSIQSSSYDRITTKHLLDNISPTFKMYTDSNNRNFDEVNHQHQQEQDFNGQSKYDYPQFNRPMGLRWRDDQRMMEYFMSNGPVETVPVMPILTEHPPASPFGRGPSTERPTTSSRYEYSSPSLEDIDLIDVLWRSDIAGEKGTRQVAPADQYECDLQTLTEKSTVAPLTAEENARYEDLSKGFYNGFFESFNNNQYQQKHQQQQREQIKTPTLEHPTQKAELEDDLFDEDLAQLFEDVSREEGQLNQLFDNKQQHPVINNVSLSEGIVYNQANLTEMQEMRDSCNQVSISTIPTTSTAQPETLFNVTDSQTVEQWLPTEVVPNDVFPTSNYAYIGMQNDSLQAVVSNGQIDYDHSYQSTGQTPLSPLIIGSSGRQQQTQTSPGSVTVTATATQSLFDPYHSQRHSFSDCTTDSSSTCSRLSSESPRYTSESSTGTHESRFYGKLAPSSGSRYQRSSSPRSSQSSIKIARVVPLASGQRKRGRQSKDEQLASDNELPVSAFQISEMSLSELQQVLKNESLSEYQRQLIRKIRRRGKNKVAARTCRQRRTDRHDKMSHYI
# [7] = fluconazole-exposed Candida albicans growth modulators – fluorescence, retest, confirmation (AID 2467); type: functional, cell-based
# [8] = NIH-3T3 fibroblast cytotoxicity, dose response, cytotoxicity control, cell-based, fluorescence, Alamar Blue, secondary assay (AID 2327); type: functional;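 also: NIH-3T3 mouse fibroblasts cultured with fluconazole at 8 µg/mL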
# [9] = viability of uninfected HEp-2 cells – cell-based, HTS, cytotoxicity control for RSV inhibitor project, dose response (AID 2410); type: functional; conditions: human respiratory syncytial virus
# Cytochrome P450 2D6 = Cytochrome P450 2D6 (Homo sapiens, UniProt P10635);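 also: CYP2D6 member of a cytochrome P450 panel assay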
# Cytochrome P450 2D6, sequence (P10635 whole entry): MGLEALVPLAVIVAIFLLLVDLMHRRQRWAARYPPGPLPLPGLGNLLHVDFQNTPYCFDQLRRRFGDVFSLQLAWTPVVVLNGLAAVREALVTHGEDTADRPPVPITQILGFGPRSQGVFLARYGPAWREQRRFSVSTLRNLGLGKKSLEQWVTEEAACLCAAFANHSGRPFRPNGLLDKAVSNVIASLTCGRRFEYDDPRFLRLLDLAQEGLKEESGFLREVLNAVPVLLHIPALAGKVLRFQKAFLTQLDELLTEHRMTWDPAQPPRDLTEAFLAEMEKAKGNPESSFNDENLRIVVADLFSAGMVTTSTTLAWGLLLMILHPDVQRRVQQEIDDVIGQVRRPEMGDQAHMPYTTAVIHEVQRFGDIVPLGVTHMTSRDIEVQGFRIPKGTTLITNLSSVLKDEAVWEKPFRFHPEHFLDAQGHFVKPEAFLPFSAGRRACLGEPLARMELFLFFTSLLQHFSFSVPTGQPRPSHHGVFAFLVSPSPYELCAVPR
# Cytochrome P450 3A4 = Cytochrome P450 3A4 (Homo sapiens, UniProt P08684);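 also: CYP3A4 tested as one member of a cytochrome P450 panel screen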
# Cytochrome P450 3A4, sequence (P08684 whole entry): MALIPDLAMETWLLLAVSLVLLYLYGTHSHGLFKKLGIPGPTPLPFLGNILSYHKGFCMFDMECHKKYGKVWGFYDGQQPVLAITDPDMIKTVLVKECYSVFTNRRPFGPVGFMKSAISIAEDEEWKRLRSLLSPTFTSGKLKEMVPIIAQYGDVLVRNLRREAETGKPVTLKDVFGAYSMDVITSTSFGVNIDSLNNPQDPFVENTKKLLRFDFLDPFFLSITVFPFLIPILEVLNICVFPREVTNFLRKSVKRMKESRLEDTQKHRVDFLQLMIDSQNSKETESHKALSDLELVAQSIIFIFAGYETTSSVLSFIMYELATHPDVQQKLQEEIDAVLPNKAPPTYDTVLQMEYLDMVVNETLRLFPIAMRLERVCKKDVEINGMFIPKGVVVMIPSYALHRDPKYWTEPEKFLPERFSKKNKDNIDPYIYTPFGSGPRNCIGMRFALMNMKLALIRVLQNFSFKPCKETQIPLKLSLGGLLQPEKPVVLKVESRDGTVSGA
# H9c2 = assay: cells; type: functional, cell-based; conditions: Rattus norvegicus, H9c2, Myocardium;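 also: confirmatory concentration-response retest of ultra-high-throughput screening hits for modulation of myocardial damage; cell death induced by hydrogen peroxide oxidative stress; compound pretreatment for 60 min then peroxide exposure for 2 h; potency is for protecting the cells against peroxide damage rather than for killing them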
structure (smiles),measurement,setting,value
CCCCC1CCC(C(=O)N(CC(C)C)c2c(N)n(Cc3ccccc3)c(=O)[nH]c2=O)CC1 (stereo not given),AC50,INS1,5.82 µM (active)
same,AC50,[1],2.96 µM (active)
CCC(=O)N1CC2(C1)[C@H](c1ccccc1)[C@H](CO)N2Cc1ccccc1OC,AC50,[2],8.35 µM (active)
COc1cccc(NC(=O)c2cnn(-c3ccccc3)c2C)c1,EC50,[3],8.62 µM (active)
same,EC50,[4],20.2 µM (active)
O=c1cc(-c2ccccc2)[nH]n1-c1ccc([N+](=O)[O-])cc1,EC50,Protein RecA,11 µM (active)
same,AC50,[1],4.13 µM (active)
same,AC50,[5],3.09 µM (active)
O=c1c2ccccc2nc(SCc2ccncc2)n1CC1CCCO1 (stereo not given),IC50,[6],12.9 µM (active)
C[C@@H]1CN([C@@H](C)CO)C(=O)Cc2cc(NC(=O)Nc3ccccc3)ccc2O[C@H]1CN(C)CC1CC1,AC50,[2],8.09 µM (active)
COC(=O)c1oc2ccc(Cl)cc2c1-n1cccc1,IC50,Protein skinhead-1,> 100 µM (inactive)
COc1ccc(C/C(O)=C(\C#N)c2nc3ccccc3s2)cc1,EC50,[7],0.405 µM (active)
same,IC50,[6],0.724 µM (active)
same,EC50,[8],39.5 µM (active)
CC1CCN(CC(=O)Nc2cccc(C(=O)Nc3cccc(C(F)(F)F)c3)c2)CC1,IC50,Protein skinhead-1,43.2 µM (active)
same,IC50,[6],12.3 µM (active)
O=C(Nc1ccc2[nH]c(-c3ccccc3)nc2c1)c1cccs1,IC50,Protein skinhead-1,> 100 µM (inactive)
Cc1cnc(NC(=O)CC(C)c2ccccc2)s1 (stereo not given),IC50,Protein skinhead-1,> 100 µM (inactive)
CCCc1cc2c(=O)c(-c3cscn3)c(C(=O)OCC)oc2cc1O,IC50,[6],13.8 µM (active)
COCC(=O)Nc1sc2c(c1C(=O)OC)CCCC2,IC50,Protein skinhead-1,> 100 µM (inactive)
CC1CCCCC1N1CN=C(Nc2nc3ccccc3s2)NC1 (stereo not given),IC50,Protein skinhead-1,> 100 µM (inactive)
O=C1/C(=C/c2cccs2)CCC1C1CCCC1 (stereo not given),IC50,Protein skinhead-1,> 100 µM (inactive)
COc1cc2cnc(-c3ccccc3)c(-c3cccc(C(F)(F)F)c3)c2cc1OC,AC50,[1],4.47 µM (active)
O=C1C2C(C(=O)N1Cc1cccnc1)C1C=CC2C12CC2 (stereo not given),IC50,Protein skinhead-1,> 100 µM (inactive)
O=C(c1ccccn1)N1CC2(C1)[C@@H](c1ccccc1)[C@H](CO)N2Cc1ccc(Cl)cc1,AC50,[2],4.6 µM (active)
Clc1ccc(C=Cc2ccccn2)cc1,IC50,Protein skinhead-1,5.71 µM (active)
CC1CCN(CC(O)COc2ccc(OCC(O)CN3CCC(C)CC3)cc2)CC1 (stereo not given),IC50,[6],12.6 µM (active)
COc1ccc(NC(=O)N2CCC3(CC2)CN(C(=O)C2CCC2)[C@@H](CO)c2c3c3ccc(OC)cc3n2C)cc1,AC50,[2],6.04 µM (active)
COc1cccc(C(=O)Nc2ccc(C3CC3(Cl)Cl)cc2)c1 (stereo not given),AC50,[1],3.15 µM (active)
C/C(=N\NC(=O)C(C)n1nc(C)c([N+](=O)[O-])c1C)c1ccccc1O (stereo not given),AC50,INS1,1.93 µM (active)
Cc1ccc(C2CC(=O)Oc3cc(O)ccc32)cc1 (stereo not given),IC50,Protein skinhead-1,> 100 µM (inactive)
CC1(C)Cc2ccccc2C(CSc2ccccc2C(=O)O)=N1,AC50,[1],4.98 µM (active)
Cc1ccccc1OCCCn1c(=O)sc2ccccc21,CC50,[9],32.2 µM (active)
same,AC50,Cytochrome P450 2D6,11.2 µM (inconclusive)
same,AC50,Cytochrome P450 3A4,17.8 µM (inconclusive)
Cc1ccc(C)c(OCC(=O)Nc2ccc(S(=O)(=O)Nc3ccccn3)cc2)c1C,IC50,[6],7.2 µM (active)
COc1cccc(-c2ccc3c(c2)[C@@H]2[C@@H](CCN2S(=O)(=O)c2cn(C)cn2)[C@@H](CO)N3)c1,AC50,[2],9.63 µM (active)
CCn1/c(=N/C(=O)c2ccc(S(=O)(=O)N3CCOCC3)cc2)sc2cccc(OC)c21,AC50,INS1,5.66 µM (active)
CCOC(=O)c1cccc(Nc2ncnc3ccccc23)c1,IC50,[6],14.5 µM (active)
COc1ccc(Cl)cc1-c1nc(-c2ccc(NC(=O)c3cccs3)cc2)no1,CC50,[9],23.2 µM (active)
same,IC50,H9c2,> 79 µM (inactive)
C[C@@H]1CN([C@H](C)CO)S(=O)(=O)c2ccc(C3=CCCCC3)cc2O[C@H]1CN(C)C(=O)Cc1ccncc1,AC50,[2],3.22 µM (active)
Cc1ccc(C2=NN(S(=O)(=O)c3ccccc3)C(c3ccco3)C2)cc1 (stereo not given),CC50,[9],8.13 µM (active)
O=C(Nc1ccc(NC(=S)NC(=O)c2ccccc2Cl)cc1)c1cccc(Cl)c1,CC50,[9],> 50 µM (active)
same,AC50,[1],3.26 µM (active)
